According to US9387209B2, “Histone deacetylases (HDACs) inhibitors” (ANNJI PHARMACEUTICAL CO., LTD., priority 2012, dated 2016):

Assays:
SH-SY5Y cells [1] = experiment: Neurite outgrowth assay, SH-SY5Y; type: cell-based; settings: Homo sapiens
[2] = biological target: T1, zinc-mediated β-amyloid aggregation (Homo sapiens, UniProt P05067); experiment: Anti-amyloid aggregation assay, CR (Congo red); type: biochemical; settings: detected by CR
Experimental: (§1) Anti-Amyloid Aggregation Assay.
(§2) The effects of compounds on inhibition of β-amyloid aggregation were assayed. The levels of β-amyloid aggregates were determined by thioflavin S, BCA or CR assays (Tables 1). Thioflavin S, and Congo red are for in vitro staining of aggregated β-amyloid. Bicinchoninic acid (BCA) assay determines the total protein level or concentration.

[3] = biological target: T2, human histone deacetylases (HDAC) 6 (Homo sapiens, UniProt Q9UBN7); experiment: HDAC enzymatic assay, HDAC6; type: biochemical; settings: for IC50: HDAC6, read-out: IC50 HDAC6 (grading)
T2 sequence (Q9UBN7 1-1215): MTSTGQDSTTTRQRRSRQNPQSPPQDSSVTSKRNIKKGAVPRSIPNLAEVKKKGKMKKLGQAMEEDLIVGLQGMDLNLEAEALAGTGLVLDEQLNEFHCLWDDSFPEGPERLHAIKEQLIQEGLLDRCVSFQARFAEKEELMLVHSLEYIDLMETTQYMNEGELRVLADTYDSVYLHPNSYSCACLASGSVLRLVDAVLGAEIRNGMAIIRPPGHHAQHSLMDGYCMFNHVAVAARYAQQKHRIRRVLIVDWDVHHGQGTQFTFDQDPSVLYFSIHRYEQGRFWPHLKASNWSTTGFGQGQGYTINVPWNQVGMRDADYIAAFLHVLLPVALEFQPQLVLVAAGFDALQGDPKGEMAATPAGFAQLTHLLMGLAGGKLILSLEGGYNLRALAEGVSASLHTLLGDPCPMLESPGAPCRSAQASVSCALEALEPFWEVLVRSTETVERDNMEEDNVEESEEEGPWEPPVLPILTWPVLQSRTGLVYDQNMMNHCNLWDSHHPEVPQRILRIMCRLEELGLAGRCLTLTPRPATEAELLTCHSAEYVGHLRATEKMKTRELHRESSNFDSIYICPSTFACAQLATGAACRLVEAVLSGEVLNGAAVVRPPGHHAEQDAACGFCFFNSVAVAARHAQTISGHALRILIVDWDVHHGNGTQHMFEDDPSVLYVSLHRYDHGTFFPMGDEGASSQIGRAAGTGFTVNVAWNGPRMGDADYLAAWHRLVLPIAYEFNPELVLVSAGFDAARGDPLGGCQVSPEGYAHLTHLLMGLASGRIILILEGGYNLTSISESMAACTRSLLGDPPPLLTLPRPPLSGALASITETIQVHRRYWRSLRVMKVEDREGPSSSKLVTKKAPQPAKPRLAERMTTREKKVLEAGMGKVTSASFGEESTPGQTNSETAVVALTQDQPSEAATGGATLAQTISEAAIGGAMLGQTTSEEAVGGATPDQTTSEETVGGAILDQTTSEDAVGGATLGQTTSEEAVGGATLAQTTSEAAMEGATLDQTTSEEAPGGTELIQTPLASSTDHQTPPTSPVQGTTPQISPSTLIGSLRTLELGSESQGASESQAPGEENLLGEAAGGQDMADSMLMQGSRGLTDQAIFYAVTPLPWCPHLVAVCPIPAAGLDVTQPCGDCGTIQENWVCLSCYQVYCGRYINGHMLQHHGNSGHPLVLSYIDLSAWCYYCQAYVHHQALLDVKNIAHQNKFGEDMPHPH

PC 12 cells [4] = experiment: Neurite outgrowth assay, PC 12; type: cell-based; settings: Rattus norvegicus
[5] = biological target: human histone deacetylases (HDAC) 1 (Homo sapiens, UniProt Q13547); experiment: HDAC enzymatic assay, HDAC1; type: biochemical; settings: read-out: IC50 HDAC1 (grading)
Sequence of human histone deacetylases (HDAC) 1 (Q13547 whole entry): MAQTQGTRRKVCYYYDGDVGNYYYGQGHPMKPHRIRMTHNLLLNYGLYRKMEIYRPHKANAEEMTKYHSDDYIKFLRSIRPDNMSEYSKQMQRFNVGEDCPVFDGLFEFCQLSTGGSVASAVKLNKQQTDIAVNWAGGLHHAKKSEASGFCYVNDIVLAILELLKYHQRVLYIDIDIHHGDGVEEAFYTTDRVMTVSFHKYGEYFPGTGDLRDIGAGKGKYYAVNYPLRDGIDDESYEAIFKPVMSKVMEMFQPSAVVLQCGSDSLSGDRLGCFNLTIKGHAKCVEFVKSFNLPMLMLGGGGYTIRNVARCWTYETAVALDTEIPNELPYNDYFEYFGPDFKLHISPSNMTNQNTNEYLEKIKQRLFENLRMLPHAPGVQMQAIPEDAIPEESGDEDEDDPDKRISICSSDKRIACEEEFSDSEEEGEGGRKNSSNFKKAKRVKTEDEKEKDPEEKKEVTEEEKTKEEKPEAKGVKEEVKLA

[6] = biological target: T1, zinc-mediated β-amyloid aggregation; experiment: Anti-amyloid aggregation assay, BCA; type: biochemical; settings: detected by BCA
Experimental: as §1, §2

[7] = tested on: hippocampus-lesioned mice; experiment: Rotarod test in Alzheimer disease model; type: in vivo; settings: daily i.p. 10 mg/kg for 30 days, compared to vehicle
Text: To test the effect of the compound in improving the learning ability of the animals in Alzheimer disease model, β-aggregates-induced hippocampal lesions were used to generate learning-impaired mice.

[8] = biological target: T1, zinc-mediated β-amyloid aggregation; experiment: Anti-amyloid aggregation assay, thioflavin S; type: biochemical; settings: detected by thioflavin S
Experimental: as §1, §2

[9] = biological target: T3, human histone deacetylases (HDAC) 8 (Homo sapiens, UniProt Q9BY41); experiment: HDAC enzymatic assay, HDAC8; type: biochemical; settings: HDAC8; read-out: IC50 HDAC8 (grading)
T3 sequence (Q9BY41 1-377): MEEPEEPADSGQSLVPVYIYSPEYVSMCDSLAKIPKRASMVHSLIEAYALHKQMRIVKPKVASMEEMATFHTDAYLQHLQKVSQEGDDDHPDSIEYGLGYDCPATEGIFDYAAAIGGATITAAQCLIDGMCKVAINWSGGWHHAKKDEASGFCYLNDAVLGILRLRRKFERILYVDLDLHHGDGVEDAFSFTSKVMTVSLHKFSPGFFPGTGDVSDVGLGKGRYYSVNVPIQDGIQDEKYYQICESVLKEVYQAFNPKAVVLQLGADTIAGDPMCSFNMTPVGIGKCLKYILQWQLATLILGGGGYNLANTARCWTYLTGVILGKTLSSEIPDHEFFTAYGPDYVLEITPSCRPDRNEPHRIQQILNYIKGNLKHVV

PC 12 cells [10] = experiment: Neurite synaptic uptake activity (FM1-43), PC 12; type: cell-based; settings: Rattus norvegicus, NGF positive control taken as 100%, read-out: uptake of dye FM1-43 EC50
Experimental: (§3) Neurite Synaptic Uptake Activity Analysis.
(§4) The effects of compounds on the neuronal synapse uptake of fluorescent indicator FM1-43 were assayed. The uptake of the dye indicated the synaptic function of the neurites. PC 12 and SH-SY5Y cells were used. Cells in experimental groups were treated with a test compound and FM1-43; Cells in positive control were treated with NGF and FM1-43; Cells in negative control were treated with a vehicle and FM1-43. The fluorescence in the positive control were taken as 100%.

SH-SY5Y cells [11] = experiment: Neurite synaptic uptake activity (FM1-43), SH-SY5Y; type: cell-based; settings: Homo sapiens, NGF positive control taken as 100%, read-out: uptake of dye FM1-43 EC50
Experimental: as §3, §4

[12] = MTT or SRB assay for cytotoxicity, HCT116; type: cell-based; settings: human, HCT-116 cells, read-out: cytotoxicity IC50 (grading) HCT116
Experimental: (§5) MTT or SRB Assays for Cytotoxicities of HDAC Inhibitors.
(§6) These compounds were assayed for cytotoxicities to the following cells: A549 cells (adenocarcinomic human alveolar basal epithelial cells), HCT-116 cells (human colon carcinoma cells). PANC-1 cells (human pancreatic carcinoma, epithelial-like cell line) and HepG2 cells (human liver hepatocellular carcinoma cell line), neuronal cells PC12 (rat pheochromocytoma cell line) and SH-SY5Y (human neuroblastoma cell line). MTT (3-[4,5-dimethylthiazol-2-yl]2,5-diphenyl-tetrazolium bromide) reduction was collaborated by using trypan blue exclusion assay.

[13] = MTT or SRB assay for cytotoxicity, A549; type: cell-based; settings: human, A549 cells, read-out: cytotoxicity IC50 (grading) A549
Experimental: as §5, §6

[14] = MTT or SRB assay for cytotoxicity, PANC1; type: cell-based; settings: human, PANC-1 cells, read-out: cytotoxicity IC50 (grading) PANC1
Experimental: as §5, §6

[15] = MTT or SRB assay for cytotoxicity, HepG2; type: cell-based; settings: human, HepG2 cells, read-out: cytotoxicity IC50 (grading) HepG2
Experimental: as §5, §6

T1 sequence (P05067 672-711 limits assumed): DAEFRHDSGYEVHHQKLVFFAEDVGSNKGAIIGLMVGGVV

| EC50 (SH-SY5Y cells [1]) [µM] | IC50 [2] [µM] | IC50 [3] [µM] | selective inhibitions on HDAC6 ([3]; HDAC6 versus other HDACs) | IC50 [5] [µM] | IC50 [6] [µM] | IC50 [8] [µM] | IC50 [9] [µM] | EC50 (PC 12 cells [10]) [µM] | EC50 (SH-SY5Y cells [11]) [µM] | melting point | SMILES | EC50 (PC 12 cells [4]) [µM] | learning performance in rotarod test [7] | IC50 [12] [µM] | IC50 [13] [µM] | IC50 [14] [µM] | IC50 [15] [µM] |
| --- | --- | --- | --- | --- | --- | --- | --- | --- | --- | --- | --- | --- | --- | --- | --- | --- | --- |
| 6.77 ± 0.96 | 43.1 | < 0.1 | selective inhibitions on HDAC6 | 1 to 10 | 11.7 | 9.5 | 1 to 10 | 6.49 ± 0.78 | 6.77 ± 0.96 |  | Cc1nc2cc(/C=C/C(=O)NO)ccc2c(=O)n1CCc1ccccc1 [Compound 1f, (2E)-3-(3,4-dihydro-2-methyl-4-oxo-3-phenethylquinazolin-7-yl)-N-hydroxyacrylamide] | 6.49 ± 0.78 | improved learning performance |  |  |  |  |
| 8.81 ± 1.04 | 30.9 | > 10 |  | 1 to 10 | 13.8 | 10.7 | > 10 | 6.59 ± 1.06 | 8.81 ± 1.04 | 246 to 248 °C (dec.) | Cc1nc2cc(/C=C/C(=O)Nc3ccccc3N)ccc2c(=O)n1CCc1ccccc1 [Compound 6a, (2E)-N-(2-aminophenyl)-3-(3,4-dihydro-2-methyl-4-oxo-3-phenethylquinazolin-7-yl)acrylamide] | 6.59 ± 1.06 |  | ≥ 10 | ≥ 10 | 1 to 10 | 0.1 to 1 |
